These results are taken from ChEMBL document CHEMBL1156213, “Imidazo[2,1-b]thiazoles: multitargeted inhibitors of both the insulin-like growth factor receptor and members of the epidermal growth factor family of receptor tyrosine kinases” (Bioorg Med Chem Lett, 2010).

Assay [1] has as its target T1, Insulin-like growth factor 1 receptor (Homo sapiens, UniProt P08069). Put plainly: Inhibition of human recombinant IGF1R expressed in Sf21 cells by time resolved fluorescence assay.
Assay [2] concerns the target T2, Receptor tyrosine-protein kinase erbB-2 (Homo sapiens, UniProt P04626). Put plainly: Inhibition of ErbB2 by time resolved fluorescence assay.
Assay [3] addresses Epidermal growth factor receptor (Homo sapiens, UniProt P00533, L858R).
For assay [4], the target named is T1, Insulin-like growth factor 1 receptor. Put plainly: Inhibition of IGF1R intracellular phosphorylation in human A431 cells by ELISA. Type of assay: cell-based, A-431.
For assay [5], the target named is T2, Receptor tyrosine-protein kinase erbB-2. Briefly: Inhibition of ErbB2 intracellular phosphorylation in human N87 cells by ELISA.
For assay [6], the target named is Epidermal growth factor receptor (Homo sapiens, UniProt P00533).
Epidermal growth factor receptor (Homo sapiens, UniProt P00533), sequence (P00533 whole entry): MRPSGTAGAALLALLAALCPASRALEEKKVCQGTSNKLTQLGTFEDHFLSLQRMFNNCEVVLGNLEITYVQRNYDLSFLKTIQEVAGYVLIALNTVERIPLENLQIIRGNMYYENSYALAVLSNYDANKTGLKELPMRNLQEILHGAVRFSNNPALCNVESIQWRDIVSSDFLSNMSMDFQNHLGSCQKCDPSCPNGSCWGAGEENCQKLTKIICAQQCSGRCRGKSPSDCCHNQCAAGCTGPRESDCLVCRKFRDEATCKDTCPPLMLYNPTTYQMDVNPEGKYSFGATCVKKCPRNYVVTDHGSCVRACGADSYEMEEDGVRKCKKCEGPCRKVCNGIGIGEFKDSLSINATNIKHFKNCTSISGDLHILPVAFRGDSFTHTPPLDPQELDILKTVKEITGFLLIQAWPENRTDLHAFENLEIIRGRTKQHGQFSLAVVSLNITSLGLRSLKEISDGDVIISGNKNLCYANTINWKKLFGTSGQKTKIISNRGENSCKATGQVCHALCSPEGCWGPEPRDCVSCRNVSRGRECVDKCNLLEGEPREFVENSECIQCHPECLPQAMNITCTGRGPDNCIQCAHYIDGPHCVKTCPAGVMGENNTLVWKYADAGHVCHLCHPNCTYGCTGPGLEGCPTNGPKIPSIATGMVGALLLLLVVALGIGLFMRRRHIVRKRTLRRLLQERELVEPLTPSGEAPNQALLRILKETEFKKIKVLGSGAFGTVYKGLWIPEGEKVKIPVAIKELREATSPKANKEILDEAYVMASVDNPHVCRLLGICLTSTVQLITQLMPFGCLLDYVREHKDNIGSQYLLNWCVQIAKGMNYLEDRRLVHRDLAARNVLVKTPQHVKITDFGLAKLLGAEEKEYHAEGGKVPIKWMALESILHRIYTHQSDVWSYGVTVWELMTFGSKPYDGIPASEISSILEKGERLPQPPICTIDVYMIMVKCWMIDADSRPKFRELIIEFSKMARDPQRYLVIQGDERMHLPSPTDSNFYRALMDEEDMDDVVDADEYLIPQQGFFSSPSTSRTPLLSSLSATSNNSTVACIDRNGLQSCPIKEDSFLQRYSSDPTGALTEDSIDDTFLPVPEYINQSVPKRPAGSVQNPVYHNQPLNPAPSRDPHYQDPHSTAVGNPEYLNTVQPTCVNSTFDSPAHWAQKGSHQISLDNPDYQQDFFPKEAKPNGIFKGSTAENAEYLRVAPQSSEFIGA
Description: Inhibition of EGFR intracellular phosphorylation in human A431 cells by ELISA
Assay [7] in a line: Inhibition of CK2.
Assay [8] has as its target T3, Serine/threonine-protein kinase Sgk1 (Homo sapiens, UniProt O00141).
T3 sequence (O00141 whole entry): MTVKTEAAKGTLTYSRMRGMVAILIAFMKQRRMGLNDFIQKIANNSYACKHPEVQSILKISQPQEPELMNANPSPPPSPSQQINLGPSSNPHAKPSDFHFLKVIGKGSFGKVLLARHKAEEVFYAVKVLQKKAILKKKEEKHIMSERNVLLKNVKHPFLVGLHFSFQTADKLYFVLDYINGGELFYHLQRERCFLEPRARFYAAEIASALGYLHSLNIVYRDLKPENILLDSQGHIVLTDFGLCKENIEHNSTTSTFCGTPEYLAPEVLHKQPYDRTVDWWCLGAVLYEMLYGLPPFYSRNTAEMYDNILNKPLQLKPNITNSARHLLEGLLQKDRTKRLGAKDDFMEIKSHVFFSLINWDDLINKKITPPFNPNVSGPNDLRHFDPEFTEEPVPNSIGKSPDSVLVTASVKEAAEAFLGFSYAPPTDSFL
Put plainly: Inhibition of SGK.

Assay [9] addresses Protein kinase C eta type (Homo sapiens, UniProt P24723). Briefly: Inhibition of PKCeta.
The nature of assay [10]: Inhibition of PKA.
Assay [11] is described as follows: Inhibition of P70S6K.
A short description of assay [12]: Inhibition of FGFR.
Assay [13] is described as follows: Inhibition of MAPKAPK.

T1 sequence (P08069 31-736 limits assumed): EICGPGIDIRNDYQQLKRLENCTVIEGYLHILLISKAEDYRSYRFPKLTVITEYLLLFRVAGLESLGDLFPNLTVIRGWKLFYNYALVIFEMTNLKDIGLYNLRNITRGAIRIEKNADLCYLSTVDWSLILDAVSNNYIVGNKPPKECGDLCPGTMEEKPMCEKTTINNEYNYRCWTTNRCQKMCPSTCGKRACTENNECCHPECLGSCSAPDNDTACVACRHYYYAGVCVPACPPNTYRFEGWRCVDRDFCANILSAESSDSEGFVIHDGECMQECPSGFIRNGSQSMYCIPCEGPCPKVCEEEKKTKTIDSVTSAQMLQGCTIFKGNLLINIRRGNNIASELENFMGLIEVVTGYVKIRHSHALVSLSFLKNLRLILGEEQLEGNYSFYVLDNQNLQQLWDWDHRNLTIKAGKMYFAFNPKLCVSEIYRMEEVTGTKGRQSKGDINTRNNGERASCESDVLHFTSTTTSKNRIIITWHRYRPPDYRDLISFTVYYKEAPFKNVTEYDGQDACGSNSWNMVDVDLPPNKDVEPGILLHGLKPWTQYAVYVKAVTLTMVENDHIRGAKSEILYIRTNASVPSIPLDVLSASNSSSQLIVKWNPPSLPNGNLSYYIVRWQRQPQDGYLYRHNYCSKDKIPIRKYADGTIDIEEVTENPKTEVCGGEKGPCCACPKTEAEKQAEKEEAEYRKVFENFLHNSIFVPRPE
T1 sequence (P08069 741-1367 limits assumed): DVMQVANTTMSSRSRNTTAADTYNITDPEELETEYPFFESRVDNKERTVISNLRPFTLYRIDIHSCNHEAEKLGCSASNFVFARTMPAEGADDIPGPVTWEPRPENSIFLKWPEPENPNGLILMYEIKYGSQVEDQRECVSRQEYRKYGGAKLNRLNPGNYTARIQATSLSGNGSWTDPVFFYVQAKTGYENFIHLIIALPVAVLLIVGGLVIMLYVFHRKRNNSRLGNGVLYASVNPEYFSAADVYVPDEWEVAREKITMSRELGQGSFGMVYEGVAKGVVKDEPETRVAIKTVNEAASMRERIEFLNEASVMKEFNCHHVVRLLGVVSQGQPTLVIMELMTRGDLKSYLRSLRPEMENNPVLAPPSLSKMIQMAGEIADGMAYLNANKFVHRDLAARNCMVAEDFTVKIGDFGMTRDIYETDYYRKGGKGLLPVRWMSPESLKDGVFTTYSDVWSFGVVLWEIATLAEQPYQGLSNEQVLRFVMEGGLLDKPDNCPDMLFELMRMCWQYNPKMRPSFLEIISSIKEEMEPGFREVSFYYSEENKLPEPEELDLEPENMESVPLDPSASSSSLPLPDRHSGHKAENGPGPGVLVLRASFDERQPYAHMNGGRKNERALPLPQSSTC
Epidermal growth factor receptor (Homo sapiens, UniProt P00533, L858R), sequence (P00533 25-1210 L858R limits assumed): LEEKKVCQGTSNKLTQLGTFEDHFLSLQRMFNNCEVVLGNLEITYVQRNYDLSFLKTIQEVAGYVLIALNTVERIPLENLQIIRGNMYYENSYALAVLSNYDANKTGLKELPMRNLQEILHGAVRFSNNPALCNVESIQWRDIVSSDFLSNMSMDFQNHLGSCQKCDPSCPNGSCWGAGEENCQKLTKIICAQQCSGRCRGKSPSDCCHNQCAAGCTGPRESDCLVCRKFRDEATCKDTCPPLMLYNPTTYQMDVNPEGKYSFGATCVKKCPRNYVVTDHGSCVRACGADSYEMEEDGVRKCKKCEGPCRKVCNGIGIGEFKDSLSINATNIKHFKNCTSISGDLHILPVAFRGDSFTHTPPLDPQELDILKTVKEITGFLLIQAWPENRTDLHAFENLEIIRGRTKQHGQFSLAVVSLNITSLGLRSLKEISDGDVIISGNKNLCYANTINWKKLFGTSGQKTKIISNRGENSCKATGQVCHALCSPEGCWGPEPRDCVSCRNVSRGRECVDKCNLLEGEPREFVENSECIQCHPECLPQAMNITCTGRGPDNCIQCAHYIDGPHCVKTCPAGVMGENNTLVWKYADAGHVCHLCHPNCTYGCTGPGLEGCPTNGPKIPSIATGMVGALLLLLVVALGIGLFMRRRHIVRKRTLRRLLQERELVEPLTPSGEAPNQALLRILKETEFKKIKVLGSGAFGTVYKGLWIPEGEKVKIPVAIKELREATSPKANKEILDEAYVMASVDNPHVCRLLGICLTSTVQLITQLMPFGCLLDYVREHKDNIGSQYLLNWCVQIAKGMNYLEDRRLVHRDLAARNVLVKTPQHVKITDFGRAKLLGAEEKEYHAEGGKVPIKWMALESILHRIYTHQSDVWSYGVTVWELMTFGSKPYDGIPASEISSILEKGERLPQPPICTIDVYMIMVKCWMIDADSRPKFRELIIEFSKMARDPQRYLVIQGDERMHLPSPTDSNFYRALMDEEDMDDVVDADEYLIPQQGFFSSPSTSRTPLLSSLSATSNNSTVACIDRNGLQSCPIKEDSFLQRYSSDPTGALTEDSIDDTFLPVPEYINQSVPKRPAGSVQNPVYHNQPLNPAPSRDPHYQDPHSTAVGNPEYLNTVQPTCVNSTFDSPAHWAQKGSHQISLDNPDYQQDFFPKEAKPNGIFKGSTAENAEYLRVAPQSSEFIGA
T2 sequence (P04626 whole entry): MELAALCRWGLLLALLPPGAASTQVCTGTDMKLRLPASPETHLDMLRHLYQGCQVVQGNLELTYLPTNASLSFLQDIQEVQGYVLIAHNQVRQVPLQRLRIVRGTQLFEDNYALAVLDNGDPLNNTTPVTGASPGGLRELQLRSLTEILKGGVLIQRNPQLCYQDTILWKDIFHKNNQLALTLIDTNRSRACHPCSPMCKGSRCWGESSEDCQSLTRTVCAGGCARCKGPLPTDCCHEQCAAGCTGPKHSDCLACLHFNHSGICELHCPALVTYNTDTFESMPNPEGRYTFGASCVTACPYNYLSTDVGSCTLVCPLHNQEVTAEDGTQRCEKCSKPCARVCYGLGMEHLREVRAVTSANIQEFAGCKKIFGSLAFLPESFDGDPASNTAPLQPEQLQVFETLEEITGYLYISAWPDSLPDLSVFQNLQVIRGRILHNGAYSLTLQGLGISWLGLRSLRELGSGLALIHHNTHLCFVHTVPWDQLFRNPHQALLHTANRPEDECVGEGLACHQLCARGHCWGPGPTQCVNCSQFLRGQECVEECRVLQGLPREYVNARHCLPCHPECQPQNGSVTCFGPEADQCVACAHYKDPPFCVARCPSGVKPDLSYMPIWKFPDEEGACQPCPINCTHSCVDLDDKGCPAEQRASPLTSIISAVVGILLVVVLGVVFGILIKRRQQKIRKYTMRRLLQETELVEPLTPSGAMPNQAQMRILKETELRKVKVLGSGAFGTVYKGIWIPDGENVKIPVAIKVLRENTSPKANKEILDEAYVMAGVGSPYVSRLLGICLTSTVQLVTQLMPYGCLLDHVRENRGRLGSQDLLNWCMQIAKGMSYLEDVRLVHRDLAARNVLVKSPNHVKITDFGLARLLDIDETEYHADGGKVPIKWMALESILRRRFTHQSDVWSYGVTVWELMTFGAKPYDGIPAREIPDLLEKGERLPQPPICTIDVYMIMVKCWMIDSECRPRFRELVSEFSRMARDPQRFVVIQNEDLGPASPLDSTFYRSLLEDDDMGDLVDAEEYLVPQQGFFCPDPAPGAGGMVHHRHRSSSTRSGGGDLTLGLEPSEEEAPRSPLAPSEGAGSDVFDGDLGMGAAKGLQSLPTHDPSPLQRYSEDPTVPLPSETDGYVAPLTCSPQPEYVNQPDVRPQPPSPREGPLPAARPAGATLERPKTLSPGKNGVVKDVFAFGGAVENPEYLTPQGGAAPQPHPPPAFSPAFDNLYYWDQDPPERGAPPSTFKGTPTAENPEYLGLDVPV

As for `O=C(Nc1cccc(-c2nc3sccn3c2-c2ccnc(Nc3ccccc3)n2)c1)c1ccccc1`, the half-maximal inhibitory concentration (IC50) in assay [1] is more than 12500 nM; in [2], 6.3 nM; in assay [3], 55 nM.

In the case of `O=C(Nc1ccccc1)Nc1cccc(-c2nc3sccn3c2-c2ccnc(Nc3ccc(N4CCOCC4)cc3)n2)c1`, the IC50 in assay [1] was 590 nM; in assay [2] it was 170 nM; in [3] it was 100 nM.

Regarding `O=C(Nc1cccc(-c2nc3sccn3c2-c2ccnc(Nc3ccc4c(c3)CCNC4)n2)c1)c1c(F)cccc1F`, the IC50 in assay [1] was 100 nM; in assay [2], 7.2 nM; in assay [3] it was 2.3 nM.

Regarding `CCN1CCN(c2ccc(Nc3nccc(-c4c(-c5cccc(NC(=O)c6c(F)cccc6F)c5)nc5sccn45)n3)cc2)CC1`, the IC50 in assay [1] was 230 nM; in [2] it was 14 nM; in assay [4] it was 200 nM; in assay [5] it was 69 nM; in assay [6], 50 nM; in [3], 0.96 nM.

In the case of `O=C(Nc1cccc(-c2nc3sccn3c2-c2ccncc2)c1)c1ccccc1Cl`, the values for the IC50 in [1], in [2] and in [3] were more than 12500 nM, 240 nM and 240 nM, respectively.

As to `O=C(Cc1ccccc1)Nc1cccc(-c2nc3sccn3c2-c2ccnc(Nc3cccc(N4CCOCC4)c3)n2)c1`, the IC50 is more than 1000 nM in assay [7]; more than 1000 nM in [8]; more than 1000 nM in [9]; more than 1000 nM in [10]; more than 1000 nM in assay [11]; 890 nM in assay [12]. Besides, the IC50 in assay [13] is more than 1000 nM.

`O=C(Cc1ccccc1)Nc1cccc(-c2nc3sccn3c2-c2ccnc(Nc3ccc4c(c3)CCNC4)n2)c1`: the IC50 in assay [1] turned out to be 27 nM; in assay [2], 55 nM; in assay [4] it was 180 nM; in assay [5], 120 nM; in assay [6], 1000 nM; in [3], 6.4 nM.

In the case of `O=C(Nc1cccc(-c2nc3sccn3c2-c2ccnc(Nc3ccccc3)n2)c1)c1ccccc1Cl`, the IC50 was more than 12500 nM in assay [1], 35 nM in assay [2] and 83 nM in [3].

Take `O=C(Nc1cccc(-c2nc3sccn3c2-c2ccnc(Nc3ccc(N4CCOCC4)cc3)n2)c1)c1ccccc1`: the 50% inhibitory concentration (IC50) in [1] stood at 1500 nM; in [2], 4.8 nM; in assay [3], 7.9 nM.

As for `O=[N+]([O-])c1cccc(-c2nc3sccn3c2-c2ccnc(Nc3ccccc3)n2)c1`, the values for the IC50 in assay [1] and in assay [2] were more than 12500 nM and 6000 nM, respectively.

On to `O=C(Nc1cccc(-c2nc3sccn3c2-c2ccnc(Nc3ccc(N4CCOCC4)cc3)n2)c1)c1c(F)cccc1F`, for which the results for the IC50 in assay [1], in assay [2] and in [3] were 1300 nM, 86 nM and 1.9 nM, respectively.

`O=C(Nc1cccc(-c2nc3sccn3c2-c2ccnc(Nc3cccc(N4CCOCC4)c3)n2)c1)c1c(F)cccc1F`: the IC50 in [1] was 3800 nM; in assay [2], 86 nM; in assay [3], 6.2 nM.

With `O=C(Nc1cccc(-c2nc3sccn3c2-c2ccnc(Nc3ccc(N4CCOCC4)cc3)n2)c1)Oc1ccccc1`, the values for the IC50 in [1], in [2] and in assay [3] were 450 nM, 170 nM and 190 nM, respectively.

In the case of `CN(C)CCc1cccc(Nc2nccc(-c3c(-c4cccc(NC(=O)Cc5ccccc5)c4)nc4sccn34)n2)c1`, the IC50 in [2] was found to be 150 nM; in assay [3] it was 24 nM.

Consider `O=C(CC1CCCCC1)Nc1cccc(-c2nc3sccn3c2-c2ccnc(Nc3ccc(N4CCOCC4)cc3)n2)c1`, for which the IC50 in assay [1] turned out to be 1100 nM; in assay [2] it was 1400 nM; in assay [3] it was 870 nM.

For `Nc1nc2ccc(-c3c(-c4cccc(NC(=O)c5ccccc5Cl)c4)nc4sccn34)cc2[nH]1`, the IC50 in [1], in [2] and in assay [3] was more than 12500 nM throughout.

As to `O=C(CC1CCCC1)Nc1cccc(-c2nc3sccn3c2-c2ccnc(Nc3ccc(N4CCOCC4)cc3)n2)c1`, the IC50 in assay [1] worked out at 580 nM; in assay [2], 1300 nM; in assay [3], 660 nM.

Regarding `CN(C)CCc1ccc(Nc2nccc(-c3c(-c4cccc(NC(=O)c5c(F)cccc5F)c4)nc4sccn34)n2)cc1`, the IC50 came to 210 nM in assay [1]; 4.3 nM in assay [2]; 330 nM in [4]; 27 nM in assay [5]; 220 nM in assay [6]; 0.78 nM in assay [3].

With `CCN1CCN(c2ccc(Nc3nccc(-c4c(-c5cccc(NC(=O)Cc6ccccc6)c5)nc5sccn45)n3)cc2)CC1`, the IC50 was 52 nM in assay [1], 170 nM in assay [2], 41 nM in assay [4] and 310 nM in assay [5].

For the compound `CN1CCc2cc(Nc3nccc(-c4c(-c5cccc(NC(=O)Cc6ccccc6)c5)nc5sccn45)n3)ccc2C1`, the IC50 came to 81 nM in [1], 160 nM in assay [2] and 57 nM in assay [3].
